Assay results taken from PubChem BioAssay (NCI).
Values joined by “and” are separate entries in the source; they are usually repeats but may differ in a detail not shown here. Equal entries are not always repeated.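 How tested: cells in 96-well plates exposed to compound for 48 hours at five concentrations. GI50 is the concentration that inhibits growth by half. TGI denotes the concentration required for complete inhibition of growth.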

What was measured:
Assay in all cases: NCI anticancer screen, dose series, 48 h
[1] = test system: SW-620 colon
[2] = test system: SF-295 CNS
[3] = test system: NCI-H226 lung
[4] = test system: T-47D breast
[5] = test system: HL-60(TB) leukemia
[6] = test system: HOP-62 NSCLC
[7] = test system: BT-549 breast
[8] = test system: SF-268 CNS
[9] = test system: IGROV1 ovarian
[10] = test system: SK-MEL-28 melanoma

| Compound | GI50 [1] [nM] | TGI [1] [µM] | GI50 [2] [µM] | TGI [2] | GI50 [3] [µM] | TGI [3] | GI50 [4] [nM] | TGI [4] [µM] | GI50 [5] [nM] | TGI [5] [µM] | GI50 [6] [µM] | TGI [6] | GI50 [7] [µM] | TGI [7] [µM] | GI50 [8] [µM] | TGI [8] | GI50 [9] [µM] | TGI [9] | GI50 [10] [µM] | TGI [10] |
| --- | --- | --- | --- | --- | --- | --- | --- | --- | --- | --- | --- | --- | --- | --- | --- | --- | --- | --- | --- | --- |
| COc1ccc(-c2nc3ccccn3c2/C=C/C(=O)c2cc(OC)c(OC)c(OC)c2)cc1 | 4160 | > 100 | 15.2 | 69.5 µM | 24.1 | > 100 µM | 2590 | 14 | 34000 | > 100 | 36.2 | > 100 µM | 3.27 | > 100 | 4 | > 100 µM | 8.86 | > 100 µM | 7.1 | > 100 µM |
| O=C(Nc1ccccc1)NS(=O)(=O)c1ccc(-n2nc3c(c2-c2ccc(Cl)cc2)Cc2ccccc2-3)cc1 | 23000 | 55.4 | 18.2 | 78.1 µM | 15.5 | 61.9 µM | 49900 | > 100 | 13400 | 35.6 | 72 | > 100 µM | 21 | 65.9 | 14.8 | 88.2 µM | 28.5 | > 100 µM | 33.7 | > 100 µM |
| CCCCS(=O)(=O)CCC(N)C(=O)O (stereo not drawn) | – | > 100 | – | > 100 µM | – | > 100 µM | – | > 100 | – | > 100 | – | > 100 µM | – | > 100 | – | > 100 µM | – | > 100 µM | – | > 100 µM |
| COc1cc(O)c(C(=O)/C=C/c2ccc(O)cc2)c(O)c1[C@@H]1C[C@H](CCc2ccc(O)cc2)O[C@H](c2ccc(O)cc2)C1 | 2230 | 4.91 | 4.36 | 17.8 µM | 14.8 | 61.2 µM | 3120 | 17.5 | 2020 | 3.91 | 3.17 | 11.2 µM | 4.36 | 17.6 | 3.85 | 14.7 µM | 2.88 | 16.5 µM | 3.83 | 14.1 µM |
| CC(C)CCN=C(N)c1ccc(N2CCN(c3ccc(C(N)=NCCC(C)C)cc3)CC2)cc1 | 15100 | 91.2 | 6.68 | 38.5 µM | 17.9 | 46.8 µM | 9540 | 57.9 | 4740 | 26.1 | 10.4 | 26.9 µM | 0.474 | 3.1 | 33.1 | > 100 µM | 6.27 | 40.3 µM | 5.89 | 24.3 µM |
| C=C1CCC2C(C)(C)CCC[C@]2(C)[C@H]1CO (stereo partly drawn) | > 100000 | > 100 | > 100 | > 100 µM | 94.5 | > 100 µM | 41700 | > 100 | 15800 | > 100 | > 100 | > 100 µM | 47.9 | > 100 | > 100 | > 100 µM | > 100 | > 100 µM | > 100 | > 100 µM |
| Fc1ccc(Nc2nc3nonc3nc2Nc2ccc(F)cc2)cc1 | 573 | 14.2 | 0.271 | 1.26 µM | 0.384 | 13.9 µM | 221 | 0.775 | 342 | 1.5 | 0.319 | 2.13 µM | 0.309 | 2.77 | 0.505 | 14.3 µM | 0.57 | 13.8 µM | 0.505 | 11 µM |
| O=[N+]([O-])c1c(Br)sc(Br)c1[N+](=O)[O-] | 1600 | 3.27 | 14.2 | 28.6 µM | 3.18 | 13.3 µM | 1840 | 4.38 | 2400 | 6.65 | 3.25 | 11.3 µM | 16.1 | 29.7 | 12.5 | 25 µM | 1.98 | 5.38 µM | 2.01 | 4.54 µM |
| CC1(C)[C@@H](O[C@@H]2OC[C@@H](O[C@@H]3O[C@H](CO)[C@@H](O)[C@H](O)[C@H]3O[C@@H]3OC[C@@H](O)[C@H](O)[C@H]3O)[C@H](O)[C@H]2O[C@@H]2O[C@H](CO)[C@@H](O)[C@H](O)[C@H]2O)CC[C@]2(C)[C@H]3CC[C@]45OC[C@@]6(CC[C@](C)(C=O)C[C@H]64)[C@H](O)C[C@@]5(C)[C@]3(C)CC[C@@H]12 | 969 | 2.04 | 0.892 | 1.64 µM | 0.985 | 2.11 µM | 1520 | 5 | 1040 | 2.21 | 0.898 | 1.79 µM | 1.14 | 3.37 | 0.963 | 1.99 µM | 0.872 | 1.84 µM | 0.903 | 1.77 µM |
| Cc1cccc2c(=O)c3c(sc12)c(NCCNCCO)nc1ccccc13 | 1450 | 3.01 | 1.73 | 3.21 µM | 1.56 | 3.32 µM | 1330 | 3.13 | 1890 | 3.59 | 1.28 | 2.87 µM | 1.58 | 3.35 | 1.54 | 3.15 µM | 1.19 | 2.65 µM | 1.79 | 3.31 µM |
| Oc1[nH]c2ccc(Cl)cc2c1/C=c1/ccc2c(c1)N=C(c1ccc(F)cc1)N=2 | 1890 | 3.74 | 7.02 | 30.6 µM | 8.22 | 23.2 µM | 2230 | 6.17 | 2760 | 7.83 | 1.77 | 3.23 µM | 1.38 | 3.11 | 2.16 | 4.37 µM | 2.12 | 4.42 µM | 1.78 | 3.48 µM |
| Nc1nc(-c2ccccc2)nc(N)c1N=O | 2000 | 5.77 | 18.1 | 52.9 µM | 4.87 | 21.2 µM | 4630 | 23.1 | 19200 | 88.9 | 12.8 | 30.5 µM | 6.44 | 19.1 | 12.3 | 39.2 µM | 11.8 | 54 µM | 11.9 | 30.6 µM |
| COc1ccc2c(c1)C(=O)c1c-2c(Nc2ccc(Cl)cc2)nc2ccccc12 | 23800 | > 100 | 16.7 | 46.6 µM | 10.3 | 50 µM | 17800 | > 100 | > 100000 | > 100 | 2.86 | 11.3 µM | 8.46 | 27.7 | > 100 | > 100 µM | 10.7 | 52.1 µM | 19.7 | > 100 µM |
| CC(=O)O[C@]1(C(C)=O)CC[C@H]2[C@@H]3C=C(C)C4=CC(=O)CC[C@]4(C)[C@H]3CC[C@@]21C | > 100000 | > 100 | > 83.3 | > 100 µM | > 83.7 | > 100 µM | > 64700 | > 100 | 12800 | 61.6 | > 100 | > 100 µM | 37.4 | > 100 | > 92.8 | > 100 µM | > 100 | > 100 µM | > 100 | > 100 µM |
| NC(=O)c1cc(-c2ccc(F)cc2)cc(-c2ccncc2)c1N | > 25000 | > 25 | > 21.7 | > 25 µM | 19.9 | > 25 µM | > 25000 | > 25 | > 25000 | > 25 | > 25 | > 25 µM | > 25 | > 25 | > 25 | > 25 µM | > 25 | > 25 µM | > 25 | > 25 µM |
| C=C1CC/C=C(\C)C(=O)C[C@@H]2[C@@H]1CC2(C)C | – | 11.5 | – | 33.4 µM | – | 42.8 µM | – | 7.8 | – | 0.507 | – | 31.1 µM | – | 11.6 | – | 52.7 µM | – | 12.9 µM | – | 6.34 µM |
| CCCCCCCCCCCC1CCCC(C)N1 (stereo not drawn) | 2710 | – | 13.5 | 28.3 µM and 154 µM | 16.7 | 36.9 µM and 166 µM | 2160 | 12.8 | 1150 | – | 14.8 | 46 µM and 107 µM | 7.39 | 22.6 | 11 | 27.2 µM and 147 µM | 6.13 | 19.2 µM and 142 µM | 13.6 | 28.2 µM and 152 µM |
| COc1ccc(Cn2cc3c(c2-c2ccc(OC)cc2)CCc2cnoc2-3)cc1 | 353 | > 100 | 0.27 | 0.96 µM | 1.36 | > 100 µM | 533 | > 100 | 282 | 1.17 | 0.539 | > 100 µM | 0.76 | > 100 | 0.686 | > 100 µM | 0.775 | > 100 µM | 0.804 | > 100 µM |
